Structures can show the parent of a compound that is named as a salt.
molecular target: T1, human 5-HT6 receptor (Homo sapiens, UniProt P50406); assay: Human 5-HT6 Receptor Binding Assay ([3H]LSD displacement, scintillation beads); details: membranes of CHO-K1 cells with recombinant human 5-HT6, 4 nM [3H]LSD; Table 1, class symbols; read-out: h5-HT6 (Ki)
T1 construct: host or cells: CHO-K1 cells, stably transfected; membranes prepared in house
T1 sequence (P50406 whole entry): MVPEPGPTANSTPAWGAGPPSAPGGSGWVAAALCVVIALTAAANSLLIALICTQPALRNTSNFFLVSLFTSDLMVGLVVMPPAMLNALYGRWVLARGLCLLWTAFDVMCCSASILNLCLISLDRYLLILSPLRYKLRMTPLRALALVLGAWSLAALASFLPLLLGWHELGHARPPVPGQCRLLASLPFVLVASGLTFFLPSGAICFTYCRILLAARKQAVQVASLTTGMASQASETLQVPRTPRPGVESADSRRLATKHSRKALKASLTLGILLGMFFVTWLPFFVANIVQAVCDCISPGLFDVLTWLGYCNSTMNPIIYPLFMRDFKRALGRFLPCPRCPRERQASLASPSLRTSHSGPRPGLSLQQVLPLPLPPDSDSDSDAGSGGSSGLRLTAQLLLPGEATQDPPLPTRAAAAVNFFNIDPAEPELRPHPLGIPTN

Compound | Ki
CC12CCNCC1Oc1ccc(OS(=O)(=O)Cc3ccc(F)cc3F)cc12 (centres unmarked) [Example 787] | > 1000 nM
CC12CCN(C3CCC3)CC1Oc1ccc(OS(=O)(=O)Cc3ccccc3)cc12 (centres unmarked) [Example 805] | > 1000 nM
CC(C)Oc1cc(OC(CO)CCl)cc(S(=O)(=O)c2ccc3c(c2)OC2CNCCC32)c1 (centres unmarked) [Example 589] | < 500 nM
O=S(=O)(c1ccc(F)c(F)c1)c1ccc2c(c1)OC1CNCCC21 (centres unmarked) [Example 128] | < 500 nM
O=S(=O)(c1cccc(OC(F)(F)F)c1)c1ccc2c(c1)OC1CNCCC21 (centres unmarked) [Example 166, 7-{[3-(trifluoromethoxy)phenyl]sulfo-nyl}-1,2,3,4,4a,9a-hexahydro[1]benzofuro[2,3-c]pyridine] | < 500 nM
O=S(=O)(Oc1ccc2c(c1)C1CCNCC1O2)c1cc2ccccc2o1 (centres unmarked) [Example 714] | < 500 nM
O=S(=O)(c1ccc2c(c1)OC1CNCCC21)c1cccc2c1OC(F)(F)O2 (centres unmarked) [Example 461] | < 500 nM
CC(C)c1ccc(S(=O)(=O)Oc2ccc3c(c2)C2(C)CCNCC2O3)cc1 (centres unmarked) [Example 766] | 500 to 1000 nM
CC1(C)NCCc2c1oc1cc(S(=O)(=O)c3ccc(F)c(F)c3)ccc21 [Example 290] | < 500 nM
O=S(=O)(c1ccc2c(c1)OCCO2)c1ccc2oc3c(c2c1)CCNC3 [Example 247] | < 500 nM
CC1(C)NCCc2c1oc1ccc(S(=O)(=O)c3cccc(F)c3)cc21 [Example 42, 6-[(3-fluorophenyl)sulfonyl]-1,1-dimethyl-1,2,3,4-tetrahydro[1]benzofuro[2,3-c]pyridine] | 500 to 1000 nM
O=S(=O)(c1ccc2c(c1)OC1CNCCC21)c1ccccn1 (centres unmarked) [Example 331] | 500 to 1000 nM
CC(C)Oc1cccc(S(=O)(=O)c2ccc3c4c(oc3c2)CNCC4)c1 [Example 217] | < 500 nM
O=S(=O)(Nc1ccc2c(c1)C1CCNCC1O2)c1cccc2ccccc12 (centres unmarked) [Example 825] | < 500 nM
COc1ccc(S(=O)(=O)c2ccc3oc4c(c3c2)CCNC4)cc1 [Example 245] | < 500 nM
CCN1CCC2(C)c3cc(OS(=O)(=O)Cc4ccccc4)ccc3OC2C1 (centres unmarked) [Example 810, 2-Ethyl-4a-methyl-1,2,3,4,4a,9a-hexahydro[1]benzofuro[2,3-c]pyridin-6-yl phenylmethanesulfonate] | > 1000 nM
O=S(=O)(Oc1ccc2c(c1)OC1CNCCC21)c1ccc(F)c(Cl)c1 (centres unmarked) [Example 663] | < 500 nM
CC(=O)N1CCC2c3cc(NS(=O)(=O)c4ccc5ccccc5c4)ccc3OC2C1 (centres unmarked) [Example 814, N-(2-Acetyl-1,2,3,4,4a,9a-hexahydro[1]benzofuro[2,3-c]pyridin-6-yl)naphthalene-2-sulfonamide] | > 1000 nM

Compound | Ki
[O-][S+](c1ccc2oc3c(c2c1)CCNC3)c1cc(F)cc(F)c1F (centres unmarked) [Example 443] | > 1000 nM
CC(C)(C)c1ccc(S(=O)(=O)Oc2ccc3c(c2)C2(C)CCNCC2O3)cc1 (centres unmarked) [Example 774] | > 1000 nM
Cc1c(S(=O)(=O)Oc2ccc3c(c2)OC2CNCCC32)sc2ccc(Cl)cc12 (centres unmarked) [Example 687] | < 500 nM
CC12CCNCC1Oc1ccc(OS(=O)(=O)Cc3ccccc3Cl)cc12 (centres unmarked) [Example 784] | < 500 nM
O=S(=O)(c1ccc2c3c(oc2c1)CNCC3)c1ccccc1-c1ccccc1 [Example 232] | < 500 nM
COc1ccc(S(=O)(=O)c2cccc3c2OC2CNCCC32)cc1 (centres unmarked) [Example 187] | 500 to 1000 nM
COc1cccc(S(=O)(=O)c2ccc3c(c2)OC2CNCCC32C)c1 (racemic) [Example 4, 7-[(3-methoxyphenyl)sulfonyl]-4a-methyl-1,2,3,4,4a,9a-hexahydro[1]benzofuro[2,3-c]pyridine] | < 500 nM
O=S(=O)(c1ccc(Cl)cc1)c1ccc2c(c1)OC1CNCCC21 (centres unmarked) [Example 322] | < 500 nM
CC(C)COc1cc(F)cc(S(=O)(=O)c2ccc3c(c2)OC2CNCCC32C)c1 (centres unmarked) [Example 424] | < 500 nM
O=S(=O)(Nc1ccc(Cl)c(Cl)c1)c1ccc2c(c1)C1CCNCC1O2 (centres unmarked) [Example 852] | > 1000 nM
O=S(=O)(Oc1ccc2c(c1)C1CCNCC1O2)c1ccccn1 (centres unmarked) [Example 753] | > 1000 nM
7-[(3,5-Difluorophenyl)sulfonyl]-2′,3,3′,4,4a,5′,6′,9a-octahydro-2H-spiro[1-benzofuro[2,3-c]pyridine-1,4′-pyran]hydrochloride [Example 623] | > 1000 nM
CC12CCN(Cc3ccccc3)CC1Oc1ccc(OS(=O)(=O)Cc3ccccc3)cc12 (centres unmarked) [Example 808] | > 1000 nM
CC12CCNCC1Oc1ccc(S(=O)(=O)c3ccccc3)cc12 (centres unmarked) [Example 62, 4a-Methyl-6-(phenylsulfonyl)-1,2,3,4,4a,9a-hexahydro[1]benzofuro[2,3-c]pyridine hydrochloride] | > 1000 nM
O=S(=O)(c1ccncc1)c1ccc2oc3c(c2c1)CCNC3 [Example 352] | > 1000 nM
COc1cc(OCC2CCOCC2)cc(S(=O)(=O)c2ccc3c(c2)OC2CNCCC32)c1 (centres unmarked) [Example 584] | < 500 nM
CC12CCNCC1Oc1cc(S(=O)(=O)c3cc[nH]c(=O)c3)ccc12 (centres unmarked) [Example 428] | > 1000 nM

Further lines, results first:

Ki | Compound
< 500 nM | O=S(=O)(c1cccc(OC(F)(F)F)c1)c1ccc2oc3c(c2c1)CCNC3 [Example 270, 6-{[3-(trifluoromethoxy)phenyl]sulfo-nyl}-1,2,3,4-tetrahydro[1]benzofuro[2,3-c]pyridine]
< 500 nM | O=S(=O)(c1cccc(OC2CCOCC2)c1)c1ccc2c(c1)OC1CNCCC21 (centres unmarked) [Example 571]
> 1000 nM | CN(C)C(=O)c1c(F)cccc1S(=O)(=O)c1ccc2c3c(oc2c1)CNCC3 [Example 479]
< 500 nM | O=S(=O)(Oc1ccc2c(c1)OC1CNCCC21)c1cccc2nsnc12 (centres unmarked) [Example 669]
< 500 nM | N#CCCCCOc1cccc(S(=O)(=O)c2ccc3c(c2)OC2CNCCC32)c1 (centres unmarked) [Example 574]
< 500 nM | COc1cc(OC(C)C)cc(S(=O)(=O)c2ccc3c(c2)OC2CN(C4CCC4)CCC32)c1 (centres unmarked) [Example 612]
< 500 nM | O=S(=O)(c1ccc(F)cc1)c1ccc2oc3c(c2c1)CCNC3 [Example 264]
> 1000 nM | O=S(=O)(Oc1ccc2c(c1)C1CCNCC1O2)c1cccc2cnccc12 (centres unmarked) [Example 745]
< 500 nM | O=S(=O)(c1cccc(F)c1)c1ccc2c3c(oc2c1)C(C(F)F)NCC3 (centres unmarked) [Example 509]
< 500 nM | Cc1c(S(=O)(=O)Oc2ccc3c(c2)C2CCNCC2O3)sc2ccc(Cl)cc12 (centres unmarked) [Example 748]
< 500 nM | O=S(=O)(c1ccc2c3c(oc2c1)CNCC3)c1ccccn1 [Example 345]
< 500 nM | O=S(=O)(Oc1ccc2c(c1)OC1CNCCC21)c1ccc(-n2cccn2)cc1 (centres unmarked) [Example 671]
< 500 nM | Cc1ccc(F)cc1S(=O)(=O)c1ccc2c3c(oc2c1)CNCC3 [Example 206]
< 500 nM | O=S(=O)(c1cccc(F)c1)c1ccc2c3c(oc2c1)CNCC3 [Example 341]
> 1000 nM | O=S(=O)(CCc1ccccc1)Oc1ccc2c(c1)OC1CNCCC21 (centres unmarked) [Example 691]
< 500 nM | Cc1c(Cl)cccc1S(=O)(=O)Oc1ccc2c(c1)C1CCNCC1O2 (centres unmarked) [Example 717]
< 500 nM | CC1NCCc2c1oc1cc(S(=O)(=O)c3ccccc3)ccc21 (centres unmarked) [Example 235]
< 500 nM | CC1OCCC12NCCc1c2oc2cc(S(=O)(=O)c3cccc(F)c3)ccc12 (single isomer, unassigned) [Example 57, 7-[(3-Fluorophenyl)sulfonyl]-2′-methyl-3,4,4′,5′-tetrahydro-2H-spiro[1-benzofuro[2,3-c]pyridine-1,3′-furan]]
< 500 nM | CC(=O)NCC1NCCc2c1oc1ccc(S(=O)(=O)c3cccc(F)c3)cc21 (centres unmarked) [Example 531, N-({6-[(3-fluorophenyl)sulfonyl]-1,2,3,4-tetrahydro[1]benzofuro[2,3-c]pyridin-1-yl}methyl)acetamide]
500 to 1000 nM | Cc1ccc(S(=O)(=O)Oc2ccc3c(c2)C2CCNCC2O3)cc1F (centres unmarked) [Example 709]

Ki | Compound
< 500 nM | O=S(=O)(c1ccccc1)c1ccc2oc3c(c2c1)CCNC3 [Example 348]
< 500 nM | O=S(=O)(c1ccc(F)cc1)c1ccc2c(c1)OC1CNCCC21 (centres unmarked) [Example 134]
< 500 nM | O=S(=O)(Oc1ccc2c(c1)C1CCNCC1O2)c1ccc(-c2ccon2)s1 (centres unmarked) [Example 742]
< 500 nM | C#CCOc1cccc(S(=O)(=O)c2ccc3c(c2)OC2CNCCC32)c1 (centres unmarked) [Example 549]
> 1000 nM | COc1ccccc1NS(=O)(=O)c1ccc2c(c1)C1CCNCC1O2 (centres unmarked) [Example 841]
< 500 nM | CC(C)Oc1cccc(S(=O)(=O)c2ccc3c(c2)OC2CNCCC32)c1 (centres unmarked) [Example 165]
< 500 nM | O=S(=O)(Oc1ccc2c(c1)C1CCNCC1O2)c1c(Cl)nc2sccn12 (centres unmarked) [Example 698]
500 to 1000 nM | Cc1ccc(S(=O)(=O)Oc2ccc3c(c2)OC2CNCCC32)cc1F (centres unmarked) [Example 652]
< 500 nM | O=S(=O)(c1ccccc1)c1ccc2c3c(oc2c1)CNCC3 [Example 339, 7-(phenylsulfonyl)-1,2,3,4-tetrahydro[1]benzofuro[2,3-c]pyridine]
< 500 nM | Cc1cccc(S(=O)(=O)Oc2ccc3c(c2)C2CCNCC2O3)c1 (centres unmarked) [Example 699]
> 1000 nM | [O-][S+](c1ccc(OC(F)(F)F)cc1)c1ccc2c3c(oc2c1)CNCC3 (centres unmarked) [Example 226, 7-{[4-(trifluoromethoxy)phenyl]sulfi-nyl}-1,2,3,4-tetrahydro[1]benzofuro[2,3-c]pyridine]
< 500 nM | CC1(C)NCCc2c1oc1cc(S(=O)(=O)c3cccc4c3OCCO4)ccc21 [Example 466]
< 500 nM | Cc1c(Cl)cccc1S(=O)(=O)Oc1ccc2c(c1)OC1CNCCC21 (centres unmarked) [Example 658]
< 500 nM | O=S(=O)(Oc1ccc2c(c1)C1CCNCC1O2)c1cc(Cl)cc(Cl)c1 (centres unmarked) [Example 739]
< 500 nM | O=S(=O)(c1ccc(Cl)c(Cl)c1)c1cccc2c1OC1CNCCC21 (centres unmarked) [Example 186]
< 500 nM | COc1ccc(S(=O)(=O)c2ccc3c4c(oc3c2)CNCC4)cc1 [Example 198]
< 500 nM | O=S(=O)(Oc1ccc2c(c1)C1CCNCC1O2)c1csc2ccccc12 (centres unmarked) [Example 726]
< 500 nM | CC(C)Oc1cccc(S(=O)(=O)c2ccc3c(c2)OC2CNCCC32)c1F (centres unmarked) [Example 483]
< 500 nM | O=S(=O)(c1ccccc1)c1ccc2c3c(oc2c1)[C@]1(CCOC1)NCC3 (single isomer, unassigned) [Example 110]
